Experimental findings from US9775819B2, “Oral solid dosage form containing nanoparticles and process of formulating the same using fish gelatin” (R.P. SCHERER TECHNOLOGIES, LLC, priority 2009, dated 2017) are described below.

A short description of this data set: Particle size (d50) by laser light diffraction, Malvern Mastersizer 2000. It is filed as physicochemical. As to conditions: unmilled active ingredient. An excerpt: During step (a) of the method of the invention, the suspension may be recycled if necessary and the process of particle size reduction continued until the desired nanoparticle size of the active ingredient is obtained. The size of the nanoparticles within the nanosuspension is typically measured using well known techniques, such as laser light diffraction methodology using, e.g., a Malvern Mastersizer 2000 particle size analyzer (Malvern Instruments, Westborough Mass.). Particle size measurements are typically described using parameters such as d50, a parameter that represents the size above and below which one finds 50% of the volume of all particles, also known as the volume weighted median. Accordingly, d50 represents a median particle size value. According to the invention, the solution is milled until a d50 ranging preferably from about 1 nm to about 900 nm, more preferably from about 10 nm to about 800 nm, and most preferably from about 50 nm to about 700 nm is achieved.
An oral solid dosage form comprising the active ingredient naproxen and excipients fish gelatin as nanostabilizer (SMW fish gelatin grade from Norland Products Inc.—Example 1A; and DFG grade from Norland Products Inc.—Example 1B) and mannitol as bulking agent was prepared. An aqueous solution of 5% fish gelatin and 3% mannitol was prepared; then naproxen was added to this solution to form a suspension slurry. The suspension slurry was charged into a 600 cc chamber-size Dyno® Mill containing zirconium milling media. Naproxen concentration in the milling slurry was 15% by weight. Milling was performed on recirculating suspension for 1.5 hours using the default milling conditions for this equipment. The resultant bulk nanosuspension was discharged from the mill, and 250 mg unit doses were accurately dispensed into 0.25 mL capacity blister pockets using an IVEK pump controlled using a Digispense unit. Blister pockets were frozen in an Air Products CM2000 freezer using liquid nitrogen as coolant and a 3 minute freezing time, then held in a freezer until transfer to pre-cooled freeze-drier shelves. […]

Molecule `COc1ccc2c(c1)c(CC(=O)O)c(C)n2C(=O)c1ccc(Cl)cc1` [indomethacin] displayed a d50 of 37 μm.

The molecule `CCOc1ccc(NC(C)=O)cc1` [phenacetin] came in with a d50 of 83 μm.

For the molecule `COc1ccc2cc([C@H](C)C(=O)O)ccc2c1` [naproxen], the d50 is reported as 22 μm.
